Test results taken from PubChem BioAssay AID248 (DTP/NCI, 2004).
Values joined by “and” are separate entries in the source; they are usually repeats but may differ in a detail not shown here. Equal values may be shown once. Toxic doses and inconclusive results are not listed. No stated cut-off is given here; in the data, active means T/C of 150% or more; inactive means T/C below 125%. Peptide text beside a SMILES is read from it. * marks the point of attachment. Tos = Cc1ccc(S(=O)(=O)*)cc1

Tested on: L1210 leukemia ip in BDF1 mice, survival T/C
Assay: NCI In Vivo Anticancer Drug Screen. Data for tumor model L1210 Leukemia (intraperitoneal) in B6D2F1 (BDF1) mice
Settings: endpoint: mean survival time, higher = longer survival
How it was run: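 In this screen, tumor-bearing mice given compound are compared to those given vehicle, and their survival values are reported as a treated-to-control quotient.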

[1] = dose: 100.0 mg/kg/injection, schedule: Q04DX002 (ip), vehicle: Klucel (hydroxypropylcellulose) (HPC)
[2] = dose: 200.0 mg/kg/injection, schedule: Q04DX002 (ip), vehicle: Klucel (hydroxypropylcellulose) (HPC)
[3] = dose: 400.0 mg/kg/injection, schedule: Q04DX002 (ip), vehicle: Klucel (hydroxypropylcellulose) (HPC)
[4] = dose: 100.0 mg/kg/injection, schedule: Q04DX003 (ip), vehicle: saline
[5] = dose: 200.0 mg/kg/injection, schedule: Q04DX003 (ip), vehicle: saline
[6] = dose: 400.0 mg/kg/injection, schedule: Q04DX003 (ip), vehicle: saline
[7] = dose: 50.0 mg/kg/injection, schedule: Q01DX001 (ip), vehicle: saline
[8] = dose: 100.0 mg/kg/injection, schedule: Q01DX001 (ip), vehicle: saline
[9] = dose: 200.0 mg/kg/injection, schedule: Q01DX001 (ip), vehicle: saline
[10] = dose: 5.0 mg/kg/injection, schedule: Q04DX003 (ip), vehicle: Klucel (hydroxypropylcellulose) (HPC)
[11] = dose: 10.0 mg/kg/injection, schedule: Q04DX003 (ip), vehicle: Klucel (hydroxypropylcellulose) (HPC)
[12] = dose: 100.0 mg/kg/injection, schedule: Q01DX009 (ip), vehicle: saline
[13] = dose: 200.0 mg/kg/injection, schedule: Q01DX009 (ip), vehicle: saline
[14] = dose: 400.0 mg/kg/injection, schedule: Q01DX009 (ip), vehicle: saline

Measured: T/C

Clc1ccc(/C=N/Nc2nc3ccccc3s2)c(Cl)c1
inactive: dose: 100.0 mg/kg/injection, schedule: Q04DX003 (ip), vehicle: saline with Tween-80 93 % of control | dose: 111.0 mg/kg/injection, schedule: Q01DX Z (ip), vehicle: methylcellulose (MC) 105 % of control | dose: 166.0 mg/kg/injection, schedule: Q01DX Z (ip), vehicle: methylcellulose (MC) 98 % of control | dose: 200.0 mg/kg/injection, schedule: Q04DX003 (ip), vehicle: saline with Tween-80 93 % of control | dose: 250.0 mg/kg/injection, schedule: Q01DX Z (ip), vehicle: methylcellulose (MC) 103 % of control | dose: 400.0 mg/kg/injection, schedule: Q04DX003 (ip), vehicle: saline with Tween-80 93 % of control

Nc1ccc(C(=O)N/N=C\c2cccc3ccccc23)cc1
inactive: [1] 97 % of control | [2] 90 % of control | [3] 93 % of control

CC(C)CCCC(C)C1CCC2C3CC=C4CC(OC(=O)Nc5ccc(S(=O)(=O)c6ccc(F)cc6)cc5)CCC4(C)C3CCC12C (stereo not drawn)
inactive: dose: 100.0 mg/kg/injection, schedule: Q01DX001 (sc), vehicle: steriod suspending solution 89 % of control | dose: 200.0 mg/kg/injection, schedule: Q01DX001 (sc), vehicle: steriod suspending solution 92 % of control | dose: 400.0 mg/kg/injection, schedule: Q01DX001 (sc), vehicle: steriod suspending solution 100 % of control

CSc1[nH]c2ncnc(N)c2c1C#N
inactive: dose: 100.0 mg/kg/injection, schedule: Q01DX001 (ip), vehicle: other 88 % of control | dose: 200.0 mg/kg/injection, schedule: Q01DX001 (ip), vehicle: other 101 % of control

O=C(O)CCc1c2ccc(=O)c(O)c-2oc2c(O)c(O)ccc12
inactive: [4] 106 % of control | [5] 105 % of control | [6] 100 % of control

CCOC(C)=N
inactive: [7] 100 % of control | dose: 50.0 mg/kg/injection, schedule: Q01DX008 (ip), vehicle: saline 102 % of control | [8] 89 % of control and 97 % of control | dose: 100.0 mg/kg/injection, schedule: Q01DX008 (ip), vehicle: saline 112 % of control | [4] 107 % of control | [9] 105 % of control and 111 % of control | dose: 200.0 mg/kg/injection, schedule: Q01DX008 (ip), vehicle: saline 115 % of control | [5] 107 % of control | dose: 400.0 mg/kg/injection, schedule: Q01DX001 (ip), vehicle: saline 115 % of control | [6] 110 % of control

O=C(Nc1ncc([N+](=O)[O-])s1)c1ccc([N+](=O)[O-])cc1Cl
inactive: dose: 5.0 mg/kg/injection, schedule: Q01DX009 (ip), vehicle: Klucel (hydroxypropylcellulose) (HPC) 94 % of control | [10] 100 % of control | dose: 10.0 mg/kg/injection, schedule: Q01DX009 (ip), vehicle: Klucel (hydroxypropylcellulose) (HPC) 92 % of control | [11] 95 % of control | dose: 20.0 mg/kg/injection, schedule: Q01DX009 (ip), vehicle: Klucel (hydroxypropylcellulose) (HPC) 99 % of control | dose: 20.0 mg/kg/injection, schedule: Q04DX003 (ip), vehicle: Klucel (hydroxypropylcellulose) (HPC) 94 % of control

CCCCCCCCCCCC(=O)NC(=S)Nc1cccc(O)c1
inactive: [1] 104 % of control | [2] 87 % of control | [3] 104 % of control

Cc1ccc(S(=O)(=O)NCC(=O)NCC(=O)O)cc1 (Tos-Gly-Gly-OH)
inactive: [12] 105 % of control | [13] 94 % of control | [14] 96 % of control

CCc1nc2c(OC)ccc(OC)c2nc1C
inactive: dose: 75.0 mg/kg/injection, schedule: Q01DX001 (ip), vehicle: other 96 % of control | dose: 150.0 mg/kg/injection, schedule: Q01DX001 (ip), vehicle: other 96 % of control

Cc1ccc(Oc2cccc3c[n+](C)ccc23)cc1
inactive: dose: 25.0 mg/kg/injection, schedule: Q04DX002 (ip), vehicle: DMSO 93 % of control | dose: 50.0 mg/kg/injection, schedule: Q04DX002 (ip), vehicle: DMSO 96 % of control | dose: 100.0 mg/kg/injection, schedule: Q04DX002 (ip), vehicle: DMSO 86 % of control

O=C(CCN1CCCCC1)c1ccccc1
inactive: dose: 5.0 mg/kg/injection, schedule: Q04DX003 (ip), vehicle: saline 96 % of control | dose: 10.0 mg/kg/injection, schedule: Q04DX003 (ip), vehicle: saline 103 % of control | dose: 20.0 mg/kg/injection, schedule: Q04DX003 (ip), vehicle: saline 94 % of control

CC1(C)CCCC(C)(C)N1
inactive: [7] 94 % of control

CCCCCCCCCCCCCCSc1ccc2ccccc2c1
inactive: dose: 100.0 mg/kg/injection, schedule: Q04DX003 (ip), vehicle: Klucel (hydroxypropylcellulose) (HPC) 92 % of control | dose: 200.0 mg/kg/injection, schedule: Q04DX003 (ip), vehicle: Klucel (hydroxypropylcellulose) (HPC) 86 % of control | dose: 400.0 mg/kg/injection, schedule: Q04DX003 (ip), vehicle: Klucel (hydroxypropylcellulose) (HPC) 87 % of control

CC(=O)OCC1OC(n2cnc3c(=S)nc(N)[nH]c32)CC1OC(C)=O (stereo not drawn)
inactive: dose: 2.5 mg/kg/injection, schedule: Q01DX002 (ip), vehicle: Klucel (hydroxypropylcellulose) (HPC) 118 % of control | [10] 117 % of control | dose: 10.0 mg/kg/injection, schedule: Q01DX002 (ip), vehicle: Klucel (hydroxypropylcellulose) (HPC) 119 % of control | [11] 121 % of control | dose: 20.0 mg/kg/injection, schedule: Q01DX002 (ip), vehicle: Klucel (hydroxypropylcellulose) (HPC) 123 % of control

COc1ccc2c(c1)c(=NCCCCN=c1c3cc(OC)ccc3n(O)c3cc(Cl)ccc13)c1cc(Cl)ccc1n2O
inactive: dose: 12.5 mg/kg/injection, schedule: Q01DX009 (ip), vehicle: other 93 % of control | dose: 25.0 mg/kg/injection, schedule: Q01DX009 (ip), vehicle: other 93 % of control | dose: 50.0 mg/kg/injection, schedule: Q01DX009 (ip), vehicle: other 93 % of control and 101 % of control | dose: 100.0 mg/kg/injection, schedule: Q01DX009 (ip), vehicle: other 101 % of control | dose: 200.0 mg/kg/injection, schedule: Q01DX009 (ip), vehicle: other 101 % of control

COC(=O)C1(C)CCCC2(C)C3CCC4(C)CC3(CCC12)CC4S(=O)(=O)c1ccc(C)cc1 (stereo not drawn)
inactive: dose: 12.5 mg/kg/injection, schedule: Q04DX002 (ip), vehicle: Klucel (hydroxypropylcellulose) (HPC) 100 % of control | dose: 25.0 mg/kg/injection, schedule: Q04DX002 (ip), vehicle: Klucel (hydroxypropylcellulose) (HPC) 89 % of control | dose: 50.0 mg/kg/injection, schedule: Q04DX002 (ip), vehicle: Klucel (hydroxypropylcellulose) (HPC) 95 % of control and 106 % of control | [2] 86 % of control

CCN(CC)C(=O)NC1CCCN1C (stereo not drawn)
inactive: [12] 96 % of control | [4] 97 % of control | [13] 101 % of control | [5] 107 % of control | [14] 109 % of control | [6] 103 % of control

CC/C=C/N1CCCCC1
inactive: dose: 25.0 mg/kg/injection, schedule: Q01DX009 (ip), vehicle: saline with Tween-80 97 % of control | dose: 50.0 mg/kg/injection, schedule: Q01DX009 (ip), vehicle: saline with Tween-80 94 % of control | dose: 100.0 mg/kg/injection, schedule: Q01DX009 (ip), vehicle: saline with Tween-80 113 % of control and 91 % of control

Nc1[nH]c(=O)nc2nc(I)[nH]c12
inactive: dose: 100.0 mg/kg/injection, schedule: Q01DX001 (ip), vehicle: carboxymethylcellulose (CMC) 97 % of control | dose: 200.0 mg/kg/injection, schedule: Q01DX001 (ip), vehicle: carboxymethylcellulose (CMC) 100 % of control | dose: 400.0 mg/kg/injection, schedule: Q01DX001 (ip), vehicle: carboxymethylcellulose (CMC) 113 % of control

CN(N=O)C(=O)NCCNc1ncnc2nc[nH]c12
inactive: dose: 43.0 mg/kg/injection, schedule: Q01DX Z (ip), vehicle: carboxymethylcellulose (CMC) 86 % of control | dose: 87.0 mg/kg/injection, schedule: Q01DX Z (ip), vehicle: carboxymethylcellulose (CMC) 93 % of control | dose: 175.0 mg/kg/injection, schedule: Q01DX Z (ip), vehicle: carboxymethylcellulose (CMC) 94 % of control | dose: 350.0 mg/kg/injection, schedule: Q01DX Z (ip), vehicle: carboxymethylcellulose (CMC) 114 % of control

CCOC(=O)C(Cc1ccc(O)c(N(CCO)CCO)c1)N1C(=O)c2ccccc2C1=O (stereo not drawn)
inactive: [8] 101 % of control | [9] 112 % of control
